Data from EP1089763B1, “AGENTS FOR SPECIFICALLY INHIBITING OSTEOCLASTIC BONE RESORPTION” (Dietsch, Peter, priority 1998, dated 1999).

Assays:
[1] = system: Nierenzellen; assay: Uptake into kidney cells, DNSA fluorescence displacement (Abb. 2); conditions: Nierenzellen with Carboanhydrase II
Text: Das Maximum der Anregung der Fluoreszenz liegt bei einer Wellenlänge von 320 nm, das Maximum der Emission bei 470 nm. Diese Fluoreszenz läßt sich gut von der des ungebundenen DNSA unterscheiden, da diese grün und sehr viel schwächer ist. Sie hat ihr Emissionsmaximum bei 580 nm. Die Carboanhydrase bindet DNSA im stöchiometrischen Verhältnis 1:1.

[2] = system: Knochenresooorption; assay: Ovariectomised rats, osteoporosis model; format: in vivo, Ratten; conditions: several months
[3] = system: Knochenresorption; assay: Serum calcium after injection of parathormone in rats; format: in vivo, Ratten; conditions: three days after a single dose of 10 mg/kg, Abb. 5
Text: Die Hemmung der Knochenresorption in Ratten, die mit 1 behandelt wurden, kann an der Änderung der Calciumkonzentration im Serum nach Injektion von Parathormon demonstriert werden (Abb. 5).

[4] = system: Osteoklasten; assay: Bone resorption by osteoclasts settled on dentine slices (cell culture); format: cell-based
[5] = system: Knochenresorption; assay: Strontium excretion and tibia mineral content in strontium-loaded growing rats; format: in vivo, Ratten
Experimental: Wachsenden Ratten - 6 Wochen alt - wurden sechsmal in Abständen von drei Tagen jeweils 2 mg SrCl2 in physiologischer Kochsalzlösung subkutan injiziert. Die Tiere bauen das Strontium analog dem Calcium in den Knochen ein. Entsprechend der Rate des Knochenumbaus wird das Strontium über Harn und Fäces während eines längeren Zeitraums wieder ausgeschieden. Nach einer 14 tägigen Latenzzeit in der sie eine calciumarme Diät erhielten, wurden ihnen verschiedene Konzentrationen von 1 i.p. apliziert und die Ausscheidung des Strontiums atomabsorptionsspektroskopisch gemessen. Die Abb.
Nach Abschluß des Versuches wurden die Tibiae präpariert und deren Gehalt an Calcium, Strontium und Phosphat bestimmt.

[6] = system: Erythrozyten; format: cell-based; conditions: not told
[7] = biological target: Isoenzym Carboanhydrase II (Homo sapiens, UniProt P00918); assay: Inhibition constant for carbonic anhydrase II; format: biochemical; conditions: Isoenzym Carboanhydrase II expressed in osteoclasts; read-out: Inhibitorkonstante KI
[8] = biological target: Carboanhydrase II (Homo sapiens, UniProt P00918); conditions: fluorescent DNSA-Carboanhydrase II complex, 1:1; read-out: Dissoziationskonstante KD; cited from earlier work
[9] = system: Osteoklasten; conditions: not told

Row | membrane permeability [9] | SMILES | uptake into cells [1] | Hemmwirkung auf die Knochenresooorption [2] | Nebenwirkungen [2] | knochenauflösende Wirkung von Parathormon (Calciumkonzentration im Serum) [3] | resorption ([4]; in the presence of osteoclast-activating hormones) | resorption ([4]; osteoclasts on Dentinplättchen) | Strontiumausscheidung ([5]; rats, various concentrations i.p., after SrCl2 loading and low-calcium diet, Abb. 3) | Gehalt an Calcium, Strontium und Phosphat (Tibiae) ([5]; versus control group, at the end of the experiment, Abb. 4) | permeability of the cell membrane [6] | Ki [7] [nM] | Kd [8] [nM]
1 | – | CCOc1ccc2nc(S(N)(=O)=O)sc2c1 [Ethoxzolamid, 6-Ethoxybenzothiaziol-2-sulfonamid, reference compound] | aufgenommen | – | – | – | – | – | – | – | – | – | –
2 | – | NS(=O)(=O)c1ccc(CNC(=S)Nc2ccc(OC3OC(CO)C(O)C(O)C3O)cc2)cc1 [compound 1, N-α-D-Mannopyranosylphenyl-N'-p-amidosulfonylbenzylthioharnstoff] | nicht aufgenommen | Hemmwirkung | keine Nebenwirkungen | vollständig blockiert | keine Resorption mehr | hören sie auf zu resorbieren | Erniedrigung der Strontiumausscheidung | deutlich höhere Konzentration | teilweise für 1 durchlässig | 800 | –
3 | kann Zellmembranen passieren | CN(C)c1cccc2c(S(N)(=O)=O)cccc12 [DNSA] | – | – | – | – | – | – | – | – | – | – | 240
